Data on 9 molecules can be found in patent US20250214942A1, “INHIBITORS OF RECEPTOR INTERACTING PROTEIN KINASE I FOR THE TREATMENT OF DISEASE” (Board of Regents, The University of Texas System, priority 2019, published 2025).

For orientation: IC50 means the point on the concentration scale where inhibition reaches its midpoint.

Where two headings read alike, the source gives them in different places.

Test [1] has as its system human monocytic cell line U937. In words: Human U937 cellular necroptosis assay (TNFalpha + z-VAD-FMK, Cell Titer-Glo viability). It is filed as cell-based. As to conditions: U937 cells, 25 ng/mL human TNFalpha + 25 μM z-VAD-FMK, read-out: hU937 Avg IC50. Summed up: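 Cells resuspended in phenol red-free RPMI with 10% FBS, stimulated with 25 ng/mL human TNFalpha plus 25 μM z-VAD-FMK, then given serially diluted compound for 22 h at 37° C, 5% CO2. Viability by Cell Titer-Glo 2.0 luminescence; IC50 from four-parameter logistic fit, averaged across runs.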
(ATP-based viability assays read luminescence as a measure of living cells.)

Another test addresses RIPK1 (Homo sapiens (Human), UniProt Q13546). Put plainly: ADP-Glo kinase assay (RIPK1 activity, conversion of ATP to ADP). It is filed as biochemical. As to conditions: 5 nM RIPK1, 50 μM ATP, 6 h reaction; read-out: RIPK1 Enzyme Avg IC50. Summed up:
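ADP-Glo luminescence of ATP-to-ADP conversion by 5 nM RIPK1 with 50 μM ATP (final), 6 h reaction after 10 min compound preincubation at rt. Buffer was 50 mM HEPES pH 7.5, 30 mM MgCl2, 0.05% BSA, 0.02% CHAPS. IC50 from four-parameter logistic fit.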
In general terms: ADP-Glo turns the ADP formed in a reaction into a luminescent signal.

RIPK1, sequence (Q13546 1-327): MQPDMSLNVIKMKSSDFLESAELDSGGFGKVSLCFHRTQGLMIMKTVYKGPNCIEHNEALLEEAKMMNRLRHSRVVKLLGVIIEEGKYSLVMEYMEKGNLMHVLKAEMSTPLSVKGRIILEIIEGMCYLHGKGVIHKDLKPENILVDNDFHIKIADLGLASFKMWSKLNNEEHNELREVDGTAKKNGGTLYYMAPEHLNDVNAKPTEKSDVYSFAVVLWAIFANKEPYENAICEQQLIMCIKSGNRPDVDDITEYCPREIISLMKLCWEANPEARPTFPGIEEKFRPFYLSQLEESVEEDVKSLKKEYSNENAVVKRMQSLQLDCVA

In the case of `O=C(N1N=CCC1c1cc(F)cc(F)c1)C12CC(COc3ccc(Br)cc3F)(C1)C2` (stereo not drawn) [Example 331, (3-((4-bromo-2-fluoro-phenoxy)methyl)bicyclo-[1.1.1]pentan-1-yl)(5-(3,5-difluorophenyl)-4,5-dihydro-1H-pyrazol-1-yl)methanone], the IC50 in test [1] (Homo sapiens, U-937, 22 h) is 28 nM; at RIPK1, 13 nM.

For the molecule `O=C(N1N=CCC1c1cc(F)cc(F)c1)C12CC(COc3cccc(F)c3Cl)(C1)C2` (stereo not drawn) [Example 332, (3-((2-chloro-3-fluoro-phenoxy)methyl)bicyclo-[1.1.1]pentan-1-yl)(5-(3,5-difluorophenyl)-4,5-dihydro-1H-pyrazol-1-yl)methanone], the half-maximal inhibitory concentration (IC50) in test [1] (Homo sapiens, U-937, 22 h) came out at 33 nM; at RIPK1 it was 19 nM.

Take `N#Cc1ccc(OCC23CC(C(=O)N4N=CCC4c4cc(F)cc(F)c4)(C2)C3)c(F)c1` (stereo not drawn) [Example 333, 4-((3-(5-(3,5-difluorophenyl)-4,5-dihydro-1H-pyrazole-1-carbonyl)bicyclo[1.1.1]pentan-1-yl)methoxy)-3-fluoro-benzonitrile]: the IC50 in test [1] (Homo sapiens, U-937, 22 h) came to 36 nM; on RIPK1, 16 nM.

Turning to `O=C(N1N=CCC1c1cc(F)cc(F)c1)C12CC(COc3ccc(F)cc3Cl)(C1)C2` (stereo not drawn) [Example 334, (3-((2-chloro-4-fluoro-phenoxy)methyl)bicyclo-[1.1.1]pentan-1-yl)(5-(3,5-difluorophenyl)-4,5-dihydro-1H-pyrazol-1-yl)methanone], the concentration for half-maximal inhibition (IC50) in test [1] (Homo sapiens, U-937, 22 h) was determined as 45 nM; at RIPK1 it was 18 nM.

On to `O=C(N1N=CCC1c1cc(F)cc(F)c1)C12CC(COc3ccc(F)cc3F)(C1)C2` (stereo not drawn) [Example 335, (3-((2,4-difluorophenoxy)-methyl)bicyclo[1.1.1]pentan-1-yl)(5-(3,5-difluorophenyl)-4,5-dihydro-1H-pyrazol-1-yl)methanone], for which the IC50 amounted to 46 nM in test [1] (Homo sapiens, U-937, 22 h) and 18 nM at RIPK1.

For `O=C(N1N=CCC1c1cc(F)cc(F)c1)C12CC(COc3ccccc3Cl)(C1)C2` (stereo not drawn) [Example 336, (3-((2-chlorophenoxy)methyl)-bicyclo[1.1.1]pentan-1-yl)(5-(3,5-difluorophenyl)-4,5-dihydro-1H-pyrazol-1-yl)-methanone], the half-maximal inhibitory concentration (IC50) in test [1] (Homo sapiens, U-937, 22 h) was found to be 55 nM; at RIPK1, 31 nM.

For the molecule `Cc1ccccc1OCC12CC(C(=O)N3N=CCC3c3cc(F)cc(F)c3)(C1)C2` (stereo not drawn) [Example 337, (5-(3,5-difluorophenyl)-4,5-dihydro-1H-pyrazol-1-yl)(3-((o-tolyloxy)methyl)bicyclo-[1.1.1]pentan-1-yl)methanone], the IC50 was 140 nM in test [1] (Homo sapiens, U-937, 22 h) and 24 nM at RIPK1.

Consider `O=C(N1N=CCC1c1cc(F)cc(F)c1)C12CC(COc3cc(F)ccc3F)(C1)C2` (stereo not drawn) [Example 338, (3-((2,5-difluorophenoxy)-methyl)bicyclo[1.1.1]pentan-1-yl)(5-(3,5-difluorophenyl)-4,5-dihydro-1H-pyrazol-1-yl)methanone], for which the 50% inhibitory concentration (IC50) in test [1] (Homo sapiens, U-937, 22 h) worked out at 165 nM; on RIPK1, 26 nM.

Turning to “(5-(3,5-difluorophenyl)-4,5-dihydro-1H-pyrazol-1-yl)(3-((6-fluoro-1H-benzo[d]-imidazol-1-yl)methyl)-bicyclo[1.1.1]pentan-1-yl)methanone and (5-(3,5-difluorophenyl)-4,5-dihydro-1H-pyrazol-1-yl)(3-((5-fluoro-1H-benzo[d]-imidazol-1-yl)methyl)-bicyclo[1.1.1]pentan-1-yl)methanone [Example 192]”, the figures for the IC50 (in test [1] (22 h); at RIPK1) were 197 nM and 80 nM, respectively.
